# Measured values from patent US4442044A, “Process for preparing monoesters and diesters of N-alkyl substituted amino methyl phosphonic acid” (priority 1983, dated 1984).
# Tests used:
# Assay in all cases: post-emergent herbicidal activity, greenhouse
# Format in all cases: in vivo
# Cocklebur = test system: Cocklebur
# Procedure, shortened: (§1)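 Seeds or propagules sown in compacted top soil, grown 2–3 weeks in greenhouse, then sprayed with compound solution/suspension containing ~0.4% emulsifier at tabulated rates. Injury scored visually versus untreated controls at ~2 and 4 weeks after treatment, expressed as a herbicidal activity index.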
# Yellow Nutsedge = conditions: Table I, 4 WAT
# Procedure, shortened: as §1
# Barnyardgrass = test system: Barnyardgrass
# Procedure, shortened: as §1
# Morningglory = test system: Morningglory
# Procedure, shortened: as §1
# Johnsongrass = conditions: Table I, 4 WAT
# Procedure, shortened: as §1
# Wild Buckwheat = conditions: Table II
# Procedure, shortened: as §1
# Soybean = conditions: Table II
# Procedure, shortened: as §1
# Wheat = conditions: Table II
# Procedure, shortened: as §1
# Smartweed = test system: Smartweed
# Procedure, shortened: as §1
# Sorghum = conditions: Table II
# Procedure, shortened: as §1
# Velvetleaf = test system: Velvetleaf
# Procedure, shortened: as §1
# Crabgrass = conditions: Table II, 4 WAT
# Procedure, shortened: as §1
# Canada Thistle = conditions: Table I, 4 WAT
# Procedure, shortened: as §1
# Quackgrass = conditions: Table I, 4 WAT
# Procedure, shortened: as §1
# Downy Brome = test system: Downy Brome
# Procedure, shortened: as §1
# Hemp Sesbania = conditions: Table II
# Procedure, shortened: as §1
# Panicum Spp = conditions: Table II
# Procedure, shortened: as §1
# Sugar Beet = conditions: Table II
# Procedure, shortened: as §1
# Rice = conditions: Table II
# Procedure, shortened: as §1
# Lambsquarters = test system: Lambsquarters
# Procedure, shortened: as §1
smiles,measurement,setting,value
"CCOC(=O)CNCP(=O)(O)OCC(Cl)(Cl)Cl [Example 27, glycine, N-[[hydroxy(2,2,2-trichloroethoxy)-phosphinyl]methyl]-, ethyl ester]",post-emergent herbicidal activity index,"Cocklebur; Table I, 4 WAT, 5.6 kg/h",2 (50-74% control)
same,post-emergent herbicidal activity index,"Cocklebur; Table I, 4 WAT, 11.2 kg/h",2 (50-74% control)
same,post-emergent herbicidal activity index,"Cocklebur; Table II, 2 WAT, 0.01 kg/h",0 (0-24% control)
same,post-emergent herbicidal activity index,"Cocklebur; Table II, 2 WAT, 0.06 kg/h",0 (0-24% control)
same,post-emergent herbicidal activity index,"Cocklebur; Table II, 4 WAT, 0.28 kg/h",2 (50-74% control)
same,post-emergent herbicidal activity index,"Cocklebur; Table II, 4 WAT, 1.12 kg/h",2 (50-74% control)
same,post-emergent herbicidal activity index,"Cocklebur; Table II, 4 WAT, 5.6 kg/h",3 (75-99% control)
same,post-emergent herbicidal activity index,Yellow Nutsedge; 5.6 kg/h,0 (0-24% control)
same,post-emergent herbicidal activity index,Yellow Nutsedge; 11.2 kg/h,2 (50-74% control)
same,post-emergent herbicidal activity index,"Barnyardgrass; Table I, 4 WAT, 5.6 kg/h",3 (75-99% control)
same,post-emergent herbicidal activity index,"Barnyardgrass; Table I, 4 WAT, 11.2 kg/h",3 (75-99% control)
same,post-emergent herbicidal activity index,"Barnyardgrass; Table II, 2 WAT, 0.01 kg/h",0 (0-24% control)
same,post-emergent herbicidal activity index,"Barnyardgrass; Table II, 2 WAT, 0.06 kg/h",0 (0-24% control)
same,post-emergent herbicidal activity index,"Barnyardgrass; Table II, 4 WAT, 0.28 kg/h",3 (75-99% control)
same,post-emergent herbicidal activity index,"Barnyardgrass; Table II, 4 WAT, 1.12 kg/h",3 (75-99% control)
same,post-emergent herbicidal activity index,"Barnyardgrass; Table II, 4 WAT, 5.6 kg/h",3 (75-99% control)
same,post-emergent herbicidal activity index,"Morningglory; Table I, 4 WAT, 5.6 kg/h",2 (50-74% control)
same,post-emergent herbicidal activity index,"Morningglory; Table I, 4 WAT, 11.2 kg/h",2 (50-74% control)
same,post-emergent herbicidal activity index,"Morningglory; Table II, 2 WAT, 0.01 kg/h",0 (0-24% control)
same,post-emergent herbicidal activity index,"Morningglory; Table II, 2 WAT, 0.06 kg/h",0 (0-24% control)
same,post-emergent herbicidal activity index,"Morningglory; Table II, 4 WAT, 0.28 kg/h",2 (50-74% control)
same,post-emergent herbicidal activity index,"Morningglory; Table II, 4 WAT, 1.12 kg/h",2 (50-74% control)
same,post-emergent herbicidal activity index,"Morningglory; Table II, 4 WAT, 5.6 kg/h",2 (50-74% control)
same,post-emergent herbicidal activity index,Johnsongrass; 5.6 kg/h,2 (50-74% control)
same,post-emergent herbicidal activity index,Johnsongrass; 11.2 kg/h,0 (0-24% control)
same,post-emergent herbicidal activity index,"Wild Buckwheat; 2 WAT, 0.01 kg/h",0 (0-24% control)
same,post-emergent herbicidal activity index,"Wild Buckwheat; 2 WAT, 0.06 kg/h",0 (0-24% control)
same,post-emergent herbicidal activity index,"Wild Buckwheat; 4 WAT, 0.28 kg/h",2 (50-74% control)
same,post-emergent herbicidal activity index,"Wild Buckwheat; 4 WAT, 1.12 kg/h",2 (50-74% control)
same,post-emergent herbicidal activity index,"Wild Buckwheat; 4 WAT, 5.6 kg/h",2 (50-74% control)
same,post-emergent herbicidal activity index,"Soybean; 2 WAT, 0.01 kg/h",0 (0-24% control)
same,post-emergent herbicidal activity index,"Soybean; 2 WAT, 0.06 kg/h",0 (0-24% control)
same,post-emergent herbicidal activity index,"Soybean; 4 WAT, 0.28 kg/h",2 (50-74% control)
same,post-emergent herbicidal activity index,"Soybean; 4 WAT, 1.12 kg/h",2 (50-74% control)
same,post-emergent herbicidal activity index,"Soybean; 4 WAT, 5.6 kg/h",3 (75-99% control)
same,post-emergent herbicidal activity index,"Wheat; 2 WAT, 0.01 kg/h",0 (0-24% control)
same,post-emergent herbicidal activity index,"Wheat; 2 WAT, 0.06 kg/h",0 (0-24% control)
same,post-emergent herbicidal activity index,"Wheat; 4 WAT, 0.28 kg/h",3 (75-99% control)
same,post-emergent herbicidal activity index,"Wheat; 4 WAT, 1.12 kg/h",2 (50-74% control)
same,post-emergent herbicidal activity index,"Wheat; 4 WAT, 5.6 kg/h",4 (100% control)
same,post-emergent herbicidal activity index,"Smartweed; Table I, 4 WAT, 5.6 kg/h",2 (50-74% control)
same,post-emergent herbicidal activity index,"Smartweed; Table I, 4 WAT, 11.2 kg/h",2 (50-74% control)
same,post-emergent herbicidal activity index,"Smartweed; Table II, 2 WAT, 0.01 kg/h",0 (0-24% control)
same,post-emergent herbicidal activity index,"Smartweed; Table II, 2 WAT, 0.06 kg/h",0 (0-24% control)
same,post-emergent herbicidal activity index,"Smartweed; Table II, 4 WAT, 0.28 kg/h",3 (75-99% control)
same,post-emergent herbicidal activity index,"Smartweed; Table II, 4 WAT, 1.12 kg/h",2 (50-74% control)
same,post-emergent herbicidal activity index,"Smartweed; Table II, 4 WAT, 5.6 kg/h",3 (75-99% control)
same,post-emergent herbicidal activity index,"Sorghum; 2 WAT, 0.01 kg/h",0 (0-24% control)
same,post-emergent herbicidal activity index,"Sorghum; 2 WAT, 0.06 kg/h",0 (0-24% control)
same,post-emergent herbicidal activity index,"Sorghum; 4 WAT, 0.28 kg/h",2 (50-74% control)
same,post-emergent herbicidal activity index,"Sorghum; 4 WAT, 1.12 kg/h",2 (50-74% control)
same,post-emergent herbicidal activity index,"Sorghum; 4 WAT, 5.6 kg/h",3 (75-99% control)
same,post-emergent herbicidal activity index,"Velvetleaf; Table I, 4 WAT, 5.6 kg/h",1 (25-49% control)
same,post-emergent herbicidal activity index,"Velvetleaf; Table I, 4 WAT, 11.2 kg/h",2 (50-74% control)
same,post-emergent herbicidal activity index,"Velvetleaf; Table II, 2 WAT, 0.01 kg/h",0 (0-24% control)
same,post-emergent herbicidal activity index,"Velvetleaf; Table II, 2 WAT, 0.06 kg/h",0 (0-24% control)
same,post-emergent herbicidal activity index,"Velvetleaf; Table II, 4 WAT, 0.28 kg/h",1 (25-49% control)
same,post-emergent herbicidal activity index,"Velvetleaf; Table II, 4 WAT, 1.12 kg/h",1 (25-49% control)
same,post-emergent herbicidal activity index,"Velvetleaf; Table II, 4 WAT, 5.6 kg/h",1 (25-49% control)
same,post-emergent herbicidal activity index,Crabgrass; 1.12 kg/h,3 (75-99% control)
same,post-emergent herbicidal activity index,Crabgrass; 5.6 kg/h,4 (100% control)
same,post-emergent herbicidal activity index,Canada Thistle; 5.6 kg/h,1 (25-49% control)
same,post-emergent herbicidal activity index,Canada Thistle; 11.2 kg/h,2 (50-74% control)
same,post-emergent herbicidal activity index,Quackgrass; 5.6 kg/h,1 (25-49% control)
same,post-emergent herbicidal activity index,Quackgrass; 11.2 kg/h,1 (25-49% control)
same,post-emergent herbicidal activity index,"Downy Brome; Table I, 4 WAT, 5.6 kg/h",0 (0-24% control)
same,post-emergent herbicidal activity index,"Downy Brome; Table I, 4 WAT, 11.2 kg/h",0 (0-24% control)
same,post-emergent herbicidal activity index,"Downy Brome; Table II, 2 WAT, 0.01 kg/h",0 (0-24% control)
same,post-emergent herbicidal activity index,"Downy Brome; Table II, 2 WAT, 0.06 kg/h",0 (0-24% control)
same,post-emergent herbicidal activity index,"Downy Brome; Table II, 4 WAT, 0.28 kg/h",3 (75-99% control)
same,post-emergent herbicidal activity index,"Downy Brome; Table II, 4 WAT, 1.12 kg/h",3 (75-99% control)
same,post-emergent herbicidal activity index,"Downy Brome; Table II, 4 WAT, 5.6 kg/h",3 (75-99% control)
same,post-emergent herbicidal activity index,"Hemp Sesbania; 2 WAT, 0.01 kg/h",0 (0-24% control)
same,post-emergent herbicidal activity index,"Hemp Sesbania; 2 WAT, 0.06 kg/h",0 (0-24% control)
same,post-emergent herbicidal activity index,"Hemp Sesbania; 4 WAT, 0.28 kg/h",1 (25-49% control)
same,post-emergent herbicidal activity index,"Hemp Sesbania; 4 WAT, 1.12 kg/h",2 (50-74% control)
same,post-emergent herbicidal activity index,"Hemp Sesbania; 4 WAT, 5.6 kg/h",3 (75-99% control)
same,post-emergent herbicidal activity index,"Panicum Spp; 2 WAT, 0.01 kg/h",0 (0-24% control)
same,post-emergent herbicidal activity index,"Panicum Spp; 2 WAT, 0.06 kg/h",0 (0-24% control)
same,post-emergent herbicidal activity index,"Panicum Spp; 4 WAT, 0.28 kg/h",3 (75-99% control)
same,post-emergent herbicidal activity index,"Panicum Spp; 4 WAT, 1.12 kg/h",4 (100% control)
same,post-emergent herbicidal activity index,"Panicum Spp; 4 WAT, 5.6 kg/h",4 (100% control)
same,post-emergent herbicidal activity index,"Sugar Beet; 2 WAT, 0.01 kg/h",0 (0-24% control)
same,post-emergent herbicidal activity index,"Sugar Beet; 2 WAT, 0.06 kg/h",0 (0-24% control)
same,post-emergent herbicidal activity index,"Sugar Beet; 4 WAT, 0.28 kg/h",2 (50-74% control)
same,post-emergent herbicidal activity index,"Sugar Beet; 4 WAT, 1.12 kg/h",2 (50-74% control)
same,post-emergent herbicidal activity index,"Sugar Beet; 4 WAT, 5.6 kg/h",3 (75-99% control)
same,post-emergent herbicidal activity index,"Rice; 2 WAT, 0.01 kg/h",0 (0-24% control)
same,post-emergent herbicidal activity index,"Rice; 2 WAT, 0.06 kg/h",0 (0-24% control)
same,post-emergent herbicidal activity index,"Rice; 4 WAT, 0.28 kg/h",3 (75-99% control)
same,post-emergent herbicidal activity index,"Rice; 4 WAT, 1.12 kg/h",3 (75-99% control)
same,post-emergent herbicidal activity index,"Rice; 4 WAT, 5.6 kg/h",3 (75-99% control)
same,post-emergent herbicidal activity index,"Lambsquarters; Table I, 4 WAT, 5.6 kg/h",3 (75-99% control)
same,post-emergent herbicidal activity index,"Lambsquarters; Table I, 4 WAT, 11.2 kg/h",3 (75-99% control)
same,post-emergent herbicidal activity index,"Lambsquarters; Table II, 2 WAT, 0.01 kg/h",0 (0-24% control)
same,post-emergent herbicidal activity index,"Lambsquarters; Table II, 2 WAT, 0.06 kg/h",0 (0-24% control)
same,post-emergent herbicidal activity index,"Lambsquarters; Table II, 4 WAT, 0.28 kg/h",1 (25-49% control)
same,post-emergent herbicidal activity index,"Lambsquarters; Table II, 4 WAT, 1.12 kg/h",2 (50-74% control)
same,post-emergent herbicidal activity index,"Lambsquarters; Table II, 4 WAT, 5.6 kg/h",3 (75-99% control)
